Assay [1] deals with T1, NMDA receptor (Rattus norvegicus, UniProt P35439).
T1 construct: endogenous in cells
Put plainly: Patch clamp, inward currents to NMDA in cultured superior colliculus neurones. The note with it: NMDA 200 μM, glycine 1 μM. The format is cell-based. As to the method: Cells were mechanically dissociated in 0.05% DNAase / 0.3% ovomucoid (Sigma) following a 15 minute pre-incubation with 0.66% trypsin / 0.1% DNAase (Sigma). The dissociated cells were then centrifuged at 18G for 10 minutes, resuspended in minimum essential medium (Gibco) and plated at a density of 200,000 cells cm onto poly-L-lysine (Sigma)-precoated plastic petri dishes (Falcon). The cells were nourished with NaHCO3 /HEPES-buffered minimum essential medium supplemented with 5% foetal calf serum and 5% horse serum (Gibco) and incubated at 37° C. with 5%CO2 at 95% humidity. The medium was exchanged completely following inhibition of further glial mitosis with cytosine-β-D-arabinofuranoside (20 μM Sigma) after about 7 days in vitro. Thereafter the medium was exchanged partially twice weekly. […] Moreover, the relatively small neurones (soma 15-20 μm .phi.) are ideally suited to minimise problems of buffered diffusion for concentration clamp experiments.
Patch clamp recordings were made from these neurones with polished glass electrodes (4-6 m.OMEGA.) in the whole cell mode at room temperature (20°-22° C.) with the aid of an EPC-7 amplifier (List). Test substances were applied by switching channels of a custom made fast superfusion system with a common outflow (10-20 ms exchange times). The contents of the intracellular solution were as follows (mM): CsCl (120), TEACl (20), EGTA (10), MgCl2 (1), CaCl2 (0.2), glucose (10), ATP (2), cAMP (0.25); pH was adjusted to 7.3 with CsOH or HCl. The extracellular solutions had the following basic composition (mM): NaCl (140), KCl (3), CaCl2 (0.2), glucose (10), HEPES (10), sucrose (4.5), tetrodotoxin (TTX 3*10-4). For most experiments glycine (1 μM) was present in all solutions. Experiments to test the glycine-dependence of the tricyclic "pyrido-phtalazin diones" were performed in the continuous presence of increasing concentrations of glycine (1-10 μM).
This effect was mediated at the glycineB site as evidenced by the parallel shift in the concentration-response curves in the presence of increasing glycine concentrations. Thus the Kbs of Mrz 2/502 as assessed according to the Cheng-Prusoff relationship were similar in glycine 1, 3 and 10 μM (80, 124 and 118 nM respectively). […] Choline derivatives had similar potencies to the free acids in vitro (Table14b).
(In patch-clamp work, channel activity is measured electrically.)

For assay [2], the target named is T2, NMDA receptor (Mus musculus, UniProt P35438).
T2 construct: from tissue; host or cells: living mice (albino Swiss males for NMDA and PTZ tests, NMR females for MES)
The assay can be described thus: Maximal electroshock (MES)-induced tonic convulsions. The assay is classed as in vivo. Particulars: for ED50: mouse, ip, 0.25 h, read-out: MES ID50; for ED50 / MES ID50: i.p., 15 min before induction. As to the method:
To assess NMDA receptor antagonistic properties of the tested agents by assessing anticonvulsive effects. Additionally the role of organic acid transporters in the elimination from the brain of tested agents was assessed by using an inhibitor, Probenicid, on the duration of anticonvulsive activity.
Male albino Swiss mice (19-21 g) housed 10-15 per cage were used for the NMDA lethality test (Leander et al., 1988). For pentylenetetrazol (PTZ)-induced convulsions male albino Swiss mice (25-34 g.) housed 40 per cage (58×38×20 cm) were used while in the maximal electroshock (MES) and motor impairment tests NMR female mice (18-28 g) housed 5 per cage were employed. All animals were kept with water and food ad libittum under a 12-h light-dark cycle (light on at 6 a.m.), and at a controlled temperature (20°±0.5° C.). All experiments were performed between 10 a.m. and 5 p.m. Tested agents were injected 15 min. i.p before the induction of convulsions if not stated otherwise (see below). Mrz 2/502 was dissolved in saline added with NaOH. Most other agents were dissolved in the following solution: 0.606 g Tris; 5.0 g. glucose; 0.5 g. Tween 80; and 95 ml water. The choline and tetramethylammonium salts were dissolved in distilled water.
MES (100 Hz, 0.5 sec shock duration, 50 mA shock intensity, 0.9 ms impulse duration, Ugo Basile) was applied through corneal electrodes. The presence of tonic convulsions was scored (tonic extension of hind paws with minimum angle to the body of 90°). In an additional experiment mice were injected with Probenicid (200 mg/kg) 30 min before administration of the tested agents to assess the role of organic acid transport in elimination (duration of action). The aim was to obtain ED50 s for all parameters scored using the Litchfield Wilcoxon (1949) test for quantal dose responses.
(The maximal electroshock test induces tonic seizures with an electrical stimulus.)

In assay [3] the target is T1, NMDA receptor. Put plainly: Microelectrophoretic application of NMDA to spinal neurones in vivo. Particulars: rat, iv, responses of single rat spinal neurones; read-out: Microelectrophoretic NMDA ID50. The procedure:
(§1) The ability of these glycineB antagonists to act as NMDA receptor antagonists in vivo was assessed using i.v. administration against responses of single neurones in the rat spinal cord to microelectrophoretic application of AMPA and NMDA.

The test system of a further assay is AMPA. Put plainly: Microelectrophoretic application of AMPA to spinal neurones in vivo. The note with it: i.v., responses of single rat spinal neurones. As to the method:
as §1

[4] abbreviates: peak currents, read-out: Peak NMDA IC50.
The mark [5] stands for this setting: plateau (steady-state) currents, read-out: Plateau NMDA IC50.

Each structure is given as a SMILES string. Counter-ions that a name gives are not always drawn. Like-named read-outs stand apart in the source and are kept apart here. Some results are limits rather than exact numbers.

Take `COc1ccc2c(c1)cc1c(=O)[nH]nc(O)c1[n+]2[O-]` [Mrz 2/578]: the half-maximal inhibitory concentration (IC50) (as a rule, the concentration at which inhibition is half-maximal) is 101 µM on NMDA receptor [1] (setting [4]) and 7.7 µM on NMDA receptor [1] (setting [5]). Besides, the ED50 on NMDA receptor [2] is greater than 100 mg/kg.
The like results for `COc1ccc2nc3c(=O)[nH][nH]c(=O)c3cc2c1` [Mrz 2/554] were, in that order, 170 µM, 36.2 µM and greater than 100 mg/kg.
Take `O=c1[nH][nH]c(=O)c2nc3ccc(Br)cc3cc12` [Mrz 2/586]: the IC50 at NMDA receptor [1] (setting [4]) came to 2.2 µM. The “MES ID50” value on NMDA receptor [2] (listed as 586, 15 min) was greater than 50 mg/kg. Further, the ED50 at NMDA receptor [3] is greater than 16 mg/kg. Also, in the assay on AMPA, the “Microelectrophoretic AMPA ID50” value is listed as greater than 16.0 mg/kg.
In the case of `O=c1[nH]nc(O)c2c1cc1cc(Cl)c(Br)cc1[n+]2[O-]` [Mrz 2/568, 7-bromo-8-chloro-4-hydroxy-1-oxo-1,2-dihydropyridazino-[4,5-b]-quinoline 5-oxide], the IC50 on NMDA receptor [1] (setting [4]) stood at 10 µM; at NMDA receptor [1] (setting [5]), 1.5 µM.
Consider `O=c1[nH][nH]c(=O)c2nc3cc(Cl)c(Cl)cc3cc12` [Mrz 2/574], for which the “MES ID50” value on NMDA receptor [2] (listed as 574, 15 min) was greater than 100 mg/kg.
As to `COc1ccc2cc3c(=O)[nH][nH]c(=O)c3nc2c1` [Mrz 2/575], the IC50 at NMDA receptor [1] (setting [4]) came to 94 µM; on NMDA receptor [1] (setting [5]), 14.5 µM. In addition, the ED50 at NMDA receptor [2] was greater than 100 mg/kg.
Take `CCCN(CCC)S(=O)(=O)c1ccc(C(=O)O)cc1` [Probenecid, reference compound]: on NMDA receptor [2] (200 mg/kg), the “independent effect on MES-induced convulsions” value is given as “no independent effect”.
In the case of `O=c1[nH]nc(O)c2c1cc1ccccc1[n+]2[O-]` [Mrz 2/577, 4-hydroxy-1-oxo-1,2-dihydro-pyridazino[4,5-b]-quinoline 5-oxide choline salt], the “MES ID50” value on NMDA receptor [2] (listed as 577, 15 min) amounted to 23.7 mg/kg. The ED50 at NMDA receptor [3] turned out to be 34 mg/kg. Also, the “Microelectrophoretic AMPA ID50” value with AMPA is greater than 32.0 mg/kg.
Consider `O=c1[nH]nc(O)c2c1cc1cc(Br)c(Cl)cc1[n+]2[O-]` [Mrz 2/551, 7-chloro-8-bromo-4-hydroxy-1-oxo-1,2-dihydropyridazino-[4,5-b]-quinoline 5-oxide], for which the values for the IC50 on NMDA receptor [1] (setting [4]) and on NMDA receptor [1] (setting [5]) were 2.4 µM and 0.6 µM, respectively.

These data come from patent US5776935A, “Pyrido-phtalazin diones and their use against neurological disorders associated with excitotoxicity and malfunctioning of glutamatergic neurotransmission” (Merz & Co. GmbH & Co., priority 1996, dated 1998).
